Source: patent publication US9089544B2, “Composition” (Slotervaart Participaties BV, priority 2007, dated 2015)
“And” between values parts separate entries of the source, which are not always exact repeats. Equal values may be shown once. Values belong to the compound of their own block, whether it stands above or below them.

Assays:
[1] = Docetaxel solubility (dissolution) test of formulations A to N in 25 mL WfI; type: physicochemical; details: 37° C., 720 rpm; for maximum docetaxel concentration / maximum docetaxel concentration as % of total docetaxel present: ±6 mg docetaxel
Description: A magnetic stirring bar and 25 mL water were added to the beaker. The solution was stirred at 720 rpm, and kept at approximately 37° C. Samples were collected at various timepoints, and filtrated using a 0.45 μm filter before they were diluted with a 1:4 v/v mixture of methanol and acetonitrile. The filtrated and diluted samples were subsequently analyzed by HPLC-UV (see table 17).

[2] = human, in vivo
[3] = cited from earlier work
[4] = Clinical phase I trial: docetaxel liquid formulation versus MODRA capsules with ritonavir (Example 5); type: in vivo, human; details: 20 mg docetaxel liquid formulation, patient 306
Description: 10 patients participated in an ongoing clinical phase I trial.
The final mixture was transferred to a stainless steel lyophilisation box (Gastronorm size 1/3), t-butanol and water were subsequently removed by lyophilisation (see table. 16).
Patients took the medication orally on an empty stomach in the morning with 100 mL tap water.
Patients 307, 308, 309 and 310 received liquid formulation and/or MODRA. Cycles were administered in a weekly interval.
According to institutional guidelines, for both oral and i.v. docetaxel all patients were treated with oral dexamethason. A dose of 4 mg dexamethason was given 1 hour prior to the study drugs, followed by 4 mg every 12 hours (2 times).
A blank sample was taken before dosing.
According to institutional guidelines, for both oral and i.v. docetaxel, all patients were treated with oral dexamethason. A dose of 4 mg dexamethason was given 1 hour prior to the study drugs, followed by 4 mg every 12 hours (2 times).

clinical [5] = details: human, in vivo, po, 100 mg
[6] = cited from earlier work; remark: listed apart in the source
clinical [7] = details: human, in vivo, 100 mg
Description: Oral ritonavir: 1 capsule with 100 mg ritonavir (Norvir®).
Ritonavir dose: 1 capsule with 100 mg ritonavir (Norvir®).
After drug administration blood samples were collected for pharmacokinetic analyses. A blank sample was taken before dosing. Blood samples were centrifuged, plasma was separated and immediately stored at −20° C. until analyses. Analysis were performed with validated HPLC methods in a GLP (Good Laboratory Practice) licensed laboratory. This concerns all pharmacokinetic studies presented here by the inventors.

[8] = mice; cited from earlier work
[9] = cited from earlier work; remark: listed apart in the source
[10] = cited from earlier work; remark: listed apart in the source
[11] = oral docetaxel 75 mg/m^2, CsA 15 mg/kg

SMILES: CC(=O)O[C@@]12CO[C@@H]1C[C@H](O)[C@@]1(C)C(=O)[C@H](O)C3=C(C)[C@@H](OC(=O)[C@H](O)[C@@H](NC(=O)OC(C)(C)C)c4ccccc4)C[C@@](O)([C@@H](OC(=O)c4ccccc4)[C@H]21)C3(C)C [Formulation A, docetaxel]
- equilibrium docetaxel concentration [1]: approximately 6 μg/mL
- equilibrium docetaxel concentration as % of total docetaxel present [1]: ~2%
- time at which equilibrium concentration is reached [1]: 15 min
- time of stirring at which maximum concentration is reached [1]: 5 min
- maximum docetaxel concentration [1]: approximately 12 μg/mL
- maximum docetaxel concentration as % of total docetaxel present [1]: ~4.7%

SMILES: CC(=O)O[C@@]12CO[C@@H]1C[C@H](O)[C@@]1(C)C(=O)[C@H](O)C3=C(C)[C@@H](OC(=O)[C@H](O)[C@@H](NC(=O)OC(C)(C)C)c4ccccc4)C[C@@](O)([C@@H](OC(=O)c4ccccc4)[C@H]21)C3(C)C [Formulation B, docetaxel]
- solubility from 10 to 60 minutes [1]: comparable to formulation A
- time of stirring at which maximum concentration is reached [1]: 0.5 min
- maximum docetaxel concentration [1]: 32 µg/mL
- maximum docetaxel concentration as % of total docetaxel present [1]: 13%

SMILES: CC(=O)O[C@H]1C(=O)[C@@]2(C)[C@H]([C@H](OC(=O)c3ccccc3)[C@]3(O)C[C@H](OC(=O)[C@H](O)[C@@H](NC(=O)c4ccccc4)c4ccccc4)C(C)=C1C3(C)C)[C@]1(OC(C)=O)CO[C@@H]1C[C@@H]2O [paclitaxel]
- apparent bioavailability of oral paclitaxel with CsA ([9]; 60 mg/m^2 oral paclitaxel, 15 mg/kg CsA): 47%
- apparent bioavailability of oral paclitaxel without CsA ([9]; 60 mg/m^2 oral paclitaxel): 4%
- maximum tolerated dose ([9]; oral paclitaxel in combination with CsA): 300 mg/m^2
- increase of AUC in knockout mice compared with wild-type mice, i.v. administration ([10]; mdr1a P-gp knockout mice): twofold
- increase of AUC in knockout mice compared with wild-type mice, oral administration ([10]; mdr1a P-gp knockout mice): sixfold
- oral bioavailability in wild-type mice when CsA was coadministered ([10]; mouse, in vivo, po): 67%
- oral bioavailability in wild-type mice with GF120918 ([10]; mouse, in vivo, po): 40%
- oral bioavailability in wild-type mice, paclitaxel alone ([10]; mouse, in vivo, po): 9% and 8.5%
- fraction of unchanged paclitaxel recovered from the faeces, mdr1a P-gp knockout mice ([10]; oral administration): 3%

More lines, main results first:

- volume of the central compartment, oral administration [2]: ~60 L
- increase of docetaxel AUC by second boosting dose of 100 mg ritonavir 4 hours after docetaxel [4]: 1.5 fold
- bioavailability (clinical [5]): 14%
- AUC (clinical [7]; iv, AUC IV day 15): 2100 ng·h/mL
- Tmax (clinical [7]; iv, Tmax IV day 15): 48 min
- AUC (clinical [7]; po, AUC docetaxel oral without ritonavir): 290 ± 260 ng·h/mL
SMILES: CC(=O)O[C@@]12CO[C@@H]1C[C@H](O)[C@@]1(C)C(=O)[C@H](O)C3=C(C)[C@@H](OC(=O)[C@H](O)[C@@H](NC(=O)OC(C)(C)C)c4ccccc4)C[C@@](O)([C@@H](OC(=O)c4ccccc4)[C@H]21)C3(C)C [docetaxel]
- apparent bioavailability of oral docetaxel with CsA [3, 11]: 90%
- increase of the systemic exposure of docetaxel with oral CsA [3, 11]: 7.3 fold
- apparent bioavailability of oral docetaxel without CsA ([3]; oral docetaxel 75 mg/m^2): 8%
- inter- and intra-patient variabilities in the AUC of docetaxel ([3]; range observed after i.v. administration, oral in the same range): 29%-53%
- docetaxel AUC ([6]; 100 mg oral docetaxel + CsA 15 mg/kg, weekly): about 2.3 mg·h/L
- overall response rate ([6]; weekly 100 mg oral docetaxel + CsA 15 mg/kg, breast cancer): 50% and 52%
- apparent bioavailability without ritonavir [8]: 4%
- increase of AUC of oral docetaxel by coadministration with CsA [8]: ninefold

- Ritonavir Cmax Simultaneous (clinical [7]; po): 200 ng/mL
SMILES: CC(C)c1nc(CN(C)C(=O)N[C@H](C(=O)N[C@@H](Cc2ccccc2)C[C@H](O)[C@H](Cc2ccccc2)NC(=O)OCc2cncs2)C(C)C)cs1 [ritonavir]
